The results in this text go back to US11780827B2, “Substituted 3-phenoxyazetidin-1-yl-pyrazines” (Boehringer Ingelheim International GmbH, priority 2020, dated 2023).

In data set [1] the target is T1, aldehyde oxidase (Homo sapiens, UniProt Q06278).
T1 construct: endogenous in cells; host or cells: cryopreserved primary human hepatocytes
T1 sequence (Q06278 1-1338): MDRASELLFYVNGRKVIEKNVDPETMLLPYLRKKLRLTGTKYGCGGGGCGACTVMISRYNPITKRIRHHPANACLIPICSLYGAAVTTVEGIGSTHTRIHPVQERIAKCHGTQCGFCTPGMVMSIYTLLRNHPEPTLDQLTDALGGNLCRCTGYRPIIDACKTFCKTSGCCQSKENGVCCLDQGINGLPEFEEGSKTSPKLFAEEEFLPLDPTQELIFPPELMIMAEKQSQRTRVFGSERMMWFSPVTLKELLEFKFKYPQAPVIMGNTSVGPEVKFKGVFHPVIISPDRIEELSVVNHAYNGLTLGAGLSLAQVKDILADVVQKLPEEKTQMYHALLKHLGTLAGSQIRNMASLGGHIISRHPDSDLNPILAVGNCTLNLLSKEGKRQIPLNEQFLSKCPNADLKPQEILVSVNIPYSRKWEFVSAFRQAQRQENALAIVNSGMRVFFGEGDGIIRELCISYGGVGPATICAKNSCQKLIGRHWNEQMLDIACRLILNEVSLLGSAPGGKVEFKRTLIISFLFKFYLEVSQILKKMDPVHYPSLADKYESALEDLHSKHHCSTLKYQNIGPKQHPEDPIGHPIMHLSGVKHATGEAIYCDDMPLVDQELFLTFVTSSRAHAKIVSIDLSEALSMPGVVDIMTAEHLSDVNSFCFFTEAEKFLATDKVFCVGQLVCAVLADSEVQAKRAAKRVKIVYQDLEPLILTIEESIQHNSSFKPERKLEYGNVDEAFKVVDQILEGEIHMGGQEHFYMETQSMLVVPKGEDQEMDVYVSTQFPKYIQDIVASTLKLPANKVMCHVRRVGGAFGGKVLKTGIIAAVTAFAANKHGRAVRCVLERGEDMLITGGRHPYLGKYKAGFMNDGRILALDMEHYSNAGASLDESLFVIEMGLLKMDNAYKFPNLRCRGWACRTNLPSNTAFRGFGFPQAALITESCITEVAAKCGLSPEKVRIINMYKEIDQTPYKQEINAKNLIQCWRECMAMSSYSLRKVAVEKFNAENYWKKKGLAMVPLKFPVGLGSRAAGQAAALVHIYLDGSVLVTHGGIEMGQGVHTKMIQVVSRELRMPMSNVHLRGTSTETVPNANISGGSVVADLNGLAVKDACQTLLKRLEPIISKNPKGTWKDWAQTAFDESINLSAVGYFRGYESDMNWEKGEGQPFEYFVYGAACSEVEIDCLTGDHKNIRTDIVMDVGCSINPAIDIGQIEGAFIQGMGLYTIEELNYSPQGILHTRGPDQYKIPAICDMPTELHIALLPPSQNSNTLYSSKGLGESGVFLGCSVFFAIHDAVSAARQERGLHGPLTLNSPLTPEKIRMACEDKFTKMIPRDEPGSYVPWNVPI
As to the kind of experiment: In vitro metabolite profiling in primary human hepatocytes with or without hydralazine. The format is in vitro ADME. Particulars: for % Parent of drug-related material: 1 μM test compound; for Contribution of AO to oxidative metabolism: sum of AO-formed metabolites. On the procedure:
(§1) In vitro metabolite profiling to evaluate the involvement of aldehyde oxidase in addition to CYP-mediated metabolic pathways is based on the semiquantitative analysis of the formation of oxygenated metabolites in primary human hepatocytes and the reduction in their formation in presence of the specific aldehyde oxidase inhibitor hydralazine. If respective hydralazine-inhibitable metabolites are also formed in human liver cytosol incubations in the absence of any cofactors, involvement of aldehyde oxidase in the metabolism of the respective compound is considered likely.
The involvement of aldehyde oxidase in metabolic transformation of the test compound is investigated using primary human hepatocytes in suspension in presence or absence of the specific aldehyde oxidase inhibitor hydralazine. After recovery from cryopreservation, human hepatocytes are incubated in Dulbecco's modified eagle medium supplemented with 3.5 μg glucagon/500 ml, 2.5 mg insulin/500 ml and 3.75 mg/500 ml hydrocortisone) containing 5% human serum.
Following a 30 min preincubation in a cell culture incubator (37° C., 10% CO2) with or without 50 μM hydralazine, test compound solution is spiked into the hepatocyte suspension to obtain a final cell density of 1.0*10^6 to 4.0*10^6 cells/mi (depending on the metabolic turnover rate of the compound observed with primary human hepatocytes), a final test compound concentration of 1 μM, and a final DMSO concentration of 0.05%.
The cells are incubated for six hours (incubator, horizontal shaker) and samples are removed from the incubation after 0, 0.5, 1, 2, 4 or 6 hours, depending on the metabolic turnover rate. Samples are quenched with acetonitrile and pelleted by centrifugation. The supernatant is transferred to a 96-deepwell plate, evaporated under nitrogen and resuspended prior to bioanalysis by liquid chromatography-high resolution mass spectrometry for identification of putative metabolites.

A further data set has as its target T2, human GPR52 (Homo sapiens, UniProt Q9Y2T5).
T2 construct: expressed in transfected cells; host or cells: CHO-K1
In words: HTRF assay for direct cAMP measurement. The following applies: CHO-K1 cells stably expressing recombinant human GPR52, mean EC50. Format: cell-based. As for the experimental part:
Homogeneous Time-Resolved Fluorescence (HTRF) Assay for Direct cAMP Measurement.
HTRF cAMP assays were performed using commercially available assay kits according to the manufacturer's instructions (cAMP Dynamic 2 Assay Kit; #62AM4PEJ, Cisbio Bioassays, Bedford, Mass.). An aliquot of CHO-K1 cells stably expressing recombinant human GPR52 is thawed and resuspended in cell buffer (1×PBS (w/o Ca^2+/Mg^2+)) at a density of 4×10^5 cells per mL Test compounds were solubilized in DMSO to 10 mM stock solutions and serially diluted in DMSO using 6-fold dilutions to generate 8-point dose response curves. These serially diluted samples were then diluted 1:50 in compound dilution buffer (1×PBS (w/o Ca^2+/Mg^2+) containing 0.5 mM IBMX, 0.1% BSA) to achieve a 4× stock. The diluted compounds were transferred (5 μL per well) in duplicate to the 384-well assay plate (Optiplate #6007290, PerkinElmer, Waltham, Mass.). Both a positive (reference compound) and negative (non-stimulated vehicle) control are included in each assay run in column 23. The cell suspension was subsequently dispensed into the 384-well assay plates at 15 μL per well (6000 cells) such that the compound was diluted to 1×. […] After a one-hour incubation at room temperature, 10 μL of cAMP D2 reagent followed by 10 μL of cryptate reagent (provided in the Cisbio kit) was added to each well. Plates were then incubated at room temperature for one hour prior to reading. Time-resolved fluorescence measurements were collected on an EnVision® HTRF plate reader (PerkinElmer, Waltham, Mass.). Counts from the plate reader were fit to the cAMP standard curve included on each plate to determine the amount of cAMP in each test well. The % control was calculated based on the positive control set at […]. Dose-response curves were generated from the cAMP data and analyzed using a nonlinear least squares curve-fitting program to obtain EC50 values.
On the technique in general: Time-resolved FRET reads energy transfer from a long-lived donor to a nearby acceptor.

Data set [2] addresses T1, aldehyde oxidase. As to the kind of experiment: Metabolite formation in pooled human liver cytosol incubations without cofactors. Further details: key: yes: Metabolite is formed in presence of human liver cytosol in the absence of cofactors as indication of aldehyde oxidase mediated metabolism; Metabolite is not detected in cytosol incubations. Particulars: human liver cytosol 5 mg/ml, 10 μM test compound, 60 min, metabolite of the same line. Format: in vitro ADME. On the procedure: as §1
The involvement of aldehyde oxidase in the metabolic transformation of the test compound is confirmed at 37° C. with pooled human liver cytosol fractions. The incubations, conducted at a final incubation volume of 60 μl per time point, are composed of phosphate buffer (100 mM, pH 7.4), magnesium chloride (5 mM), and human liver cytosol (5 mg/ml). Following a short preincubation period at 37° C., the reactions are initiated by addition of the test compound, resulting in a final concentration of 10 μM. After 0 and 60 minutes, the incubations are terminated by transferring an aliquot into organic solvent, followed by centrifugation (10000 g, 5 min). The resulting supernatant is used for bioanalysis by liquid chromatography-high resolution mass spectrometry for identification of putative metabolites.

T2 sequence (Q9Y2T5 whole entry): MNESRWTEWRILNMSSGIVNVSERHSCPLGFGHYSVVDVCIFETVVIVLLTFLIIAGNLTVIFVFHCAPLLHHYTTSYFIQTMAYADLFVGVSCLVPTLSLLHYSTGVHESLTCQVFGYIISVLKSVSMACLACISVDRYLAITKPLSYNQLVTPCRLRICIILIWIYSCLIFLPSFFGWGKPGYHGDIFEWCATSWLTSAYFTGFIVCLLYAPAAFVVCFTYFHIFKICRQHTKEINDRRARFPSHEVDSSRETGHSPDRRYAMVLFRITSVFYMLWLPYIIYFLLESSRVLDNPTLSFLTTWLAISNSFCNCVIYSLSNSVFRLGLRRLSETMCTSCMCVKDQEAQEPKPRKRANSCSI

With `CCc1cc(NC(=O)c2nccnc2N2CC(Oc3ccc(F)c(F)c3)C2)cnn1` [Example 21], at aldehyde oxidase [1], the “% Parent of drug-related material” value stood at 80% and the “Contribution of AO to oxidative metabolism” value (from here on “Contribution of AO”) stood at 67%. Also, at human GPR52, the EC50 amounted to 2 nM. The “Formation in human liver cytosol incubations [yes/no]” value (“Formation … [yes/no]” below) on aldehyde oxidase [2] is given as “yes”.
The corresponding values for `Cc1cc(NC(=O)c2nccnc2N2CC(Oc3ccc(F)c(F)c3)C2)ncn1` [Example 29] are 96%, 36%, 5 nM and “yes”.
The corresponding values for `Cc1cc(NC(=O)c2nccnc2N2CC(Oc3cc(F)cc(F)c3)C2)cnn1` [Example 13] are 15%, 15%, 9 nM and “yes”.
For `Cc1cc(NC(=O)c2nccnc2N2CC(Oc3cc(F)c(F)c(F)c3)C2)cnn1` [Example 15], on aldehyde oxidase [1], the “% Parent of drug-related material” value stood at 71% and the “Contribution of AO” value came out at 71%. Also, at human GPR52, the EC50 came out at 5 nM. Besides, at aldehyde oxidase [2], the “Formation … [yes/no]” value was “yes”.
For the compound `Cc1cc(NC(=O)c2nccnc2N2CC(Oc3ccc(F)c(F)c3)C2)cnn1` [Example 12], on aldehyde oxidase [1], the “% Parent of drug-related material” value amounted to 93% and the “Contribution of AO” value came to 56%. Moreover, the EC50 at human GPR52 came to 3 nM. Moreover, on aldehyde oxidase [2], the “Formation … [yes/no]” value is given as “yes”.
The corresponding values for `Cc1cc(NC(=O)c2nccnc2N2CC(Oc3cc(F)c(F)c(Cl)c3)C2)cnn1` [Example 14] are 94%, 22%, 4 nM and “yes”.
For the compound `Cc1cc(NC(=O)c2nccnc2N2CC(Oc3cc(F)cc(C(F)F)c3)C2)cnn1` [Example 11], at aldehyde oxidase [1], the “% Parent of drug-related material” value came out at 86% and the “Contribution of AO” value is given as 28%. Besides, the concentration giving a half-maximal response (EC50) at human GPR52 stood at 6 nM. In addition, on aldehyde oxidase [2], the “Formation … [yes/no]” value was “yes”.
Regarding `O=C(Nc1ccnnc1)c1nccnc1N1CC(Oc2cc(F)c(F)c(F)c2)C1` [Example 4], on aldehyde oxidase [1], the “% Parent of drug-related material” value amounted to 94% and the “Contribution of AO” value is 53%. Further, on human GPR52, the EC50 came out at 5 nM. On aldehyde oxidase [2], the “Formation … [yes/no]” value is “yes”.
As to `Cc1cc(NC(=O)c2nccnc2N2CC(Oc3cc(F)cc(Cl)c3)C2)cnn1` [Example 10], at aldehyde oxidase [1], the “% Parent of drug-related material” value was determined as 91% and the “Contribution of AO” value worked out at 22%. In addition, the EC50 at human GPR52 was determined as 4 nM. Moreover, the “Formation … [yes/no]” value on aldehyde oxidase [2] was “yes”.

One may read the EC50 as the concentration needed to bring the measured effect to its halfway point.
